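How tested: cells in 96-well plates exposed to compound for 48 hours at five concentrations. GI50 = concentration required for 50% inhibition of growth.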 Active and inactive are the calls of the source. Rule as the data show it: active = GI50 up to about 1.1 µM and inactive = higher. Starred links: 1 amine or outer side, 2 acyl side, 3 side chain; linkers in the order of their positions; H or OH if unused. Positions of bridges follow the written chain, without caps; N, C: chain ends. Non-standard residues stand in square brackets, D forms with d. Residues, ends and D or L forms follow the SMILES beside them. Chains are numbered I, II in the order given. Actinocin(1to9) = Cc1c2oc3c(C)ccc(C(=O)[*:2])c3nc-2c(C(=O)[*:1])c(N)c1=O; NMeV = CN[CH](C(=O)O)C(C)C; Sar = CNCC(=O)O
Tests used:
Assay in all cases: DTP human tumour cell line panel, 48 h
SF-295 = system: SF-295
SK-MEL-2 = system: SK-MEL-2
HL-60 = system: HL-60
U-251 = system: U-251
UACC-62 = system: UACC-62
RPMI-8226 = system: RPMI-8226
SF-539 = system: SF-539
NCI-H460 = system: NCI-H460
A498 = system: A498
SNB-19 = system: SNB-19
KM-20L2 = system: KM-20L2
UO-31 = system: UO-31
CCRF-CEM = system: CCRF-CEM
CAKI-1 = system: CAKI-1
MDA-MB-231 = system: MDA-MB-231
MCF7 = system: MCF7
MDA-MB-435 = system: MDA-MB-435
T47D = system: T47D
DU-145 = system: DU-145
NCI/ADR-RES = system: NCI/ADR-RES

Compound | GI50 (SF-295) | GI50 (SK-MEL-2) | GI50 (HL-60) | GI50 (U-251) | GI50 (UACC-62) | GI50 (RPMI-8226) | GI50 (SF-539) | GI50 (NCI-H460) | GI50 (A498) | GI50 (SNB-19) | GI50 (KM-20L2) | GI50 (UO-31) | GI50 (CCRF-CEM) | GI50 (CAKI-1) | GI50 (MDA-MB-231) | GI50 (MCF7) | GI50 (MDA-MB-435) | GI50 (T47D) | GI50 (DU-145) | GI50 (NCI/ADR-RES)
C[C@]12Cc3conc3C(O)=C1CC[C@@H]1C2CC[C@@]2(C)C1CC[C@]2(C)O (stereo partly specified) | 19.1 µM (inactive) | 14.3 µM (inactive) | 2.09 µM (inactive) | 19.7 µM (inactive) | 10.4 µM (inactive) | 2.87 µM (inactive) | 21.8 µM (inactive) | 13.6 µM (inactive) | 16.1 µM (inactive) | 25.3 µM (inactive) | 13.5 µM (inactive) | 16 µM (inactive) | 8.97 µM (inactive) | – | – | – | – | – | – | –
N#C/C(=C/c1ccsc1)C(=O)c1ccccc1 | > 100 µM (inactive) | > 100 µM (inactive) | > 100 µM (inactive) | > 100 µM (inactive) | > 100 µM (inactive) | > 100 µM (inactive) | > 100 µM (inactive) | > 100 µM (inactive) | – | > 100 µM (inactive) | > 100 µM (inactive) | > 100 µM (inactive) | > 100 µM (inactive) | > 100 µM (inactive) | – | – | – | – | – | –
Cc1nc2nn(C)cc2c(=O)n1/N=C/c1ccccc1 | > 100 µM (inactive) | > 100 µM (inactive) | > 100 µM (inactive) | > 100 µM (inactive) | > 100 µM (inactive) | > 100 µM (inactive) | > 100 µM (inactive) | > 100 µM (inactive) | > 100 µM (inactive) | > 100 µM (inactive) | > 100 µM (inactive) | > 100 µM (inactive) | > 100 µM (inactive) | – | – | – | – | – | – | –
O=C1OC(=O)C2C1C1C(c3ccccc3)=C(c3ccccc3)C2(O)C2C(=O)OC(=O)C12 (stereo unspecified) | > 100 µM (inactive) | > 100 µM (inactive) | > 10 µM (inactive) | 52.1 µM (inactive) | > 100 µM (inactive) | 38.6 µM (inactive) | – | > 100 µM (inactive) | > 100 µM (inactive) | > 100 µM (inactive) | 91 µM (inactive) | > 100 µM (inactive) | 37.5 µM (inactive) | > 100 µM (inactive) | – | – | – | – | – | –
CCOC(=O)/C(C(=O)c1ccccc1)=C1/NCCN1C | > 100 µM (inactive) | > 100 µM (inactive) | > 100 µM (inactive) | > 100 µM (inactive) | > 100 µM (inactive) | > 100 µM (inactive) | 10 µM (inactive) | > 100 µM (inactive) | – | > 100 µM (inactive) | > 100 µM (inactive) | > 100 µM (inactive) | > 100 µM (inactive) | > 100 µM (inactive) | – | – | – | – | – | –
COC(=O)CCC(=O)CC(=O)C(=O)Nc1ccc(F)cc1 | – | > 100 µM (inactive) | – | > 100 µM (inactive) | > 100 µM (inactive) | > 100 µM (inactive) | > 100 µM (inactive) | > 100 µM (inactive) | > 100 µM (inactive) | > 100 µM (inactive) | > 100 µM (inactive) | > 100 µM (inactive) | > 100 µM (inactive) | > 100 µM (inactive) | – | – | – | – | – | –
O=C(OCc1ccccc1)N1c2cc([N+](=O)[O-])ccc2C(=O)N2CCC[C@H]2C1O (stereo partly specified) | > 100 µM (inactive) | > 100 µM (inactive) | > 100 µM (inactive) | > 100 µM (inactive) | > 100 µM (inactive) | > 100 µM (inactive) | > 100 µM (inactive) | > 100 µM (inactive) | > 100 µM (inactive) | > 100 µM (inactive) | – | > 100 µM (inactive) | > 100 µM (inactive) | > 100 µM (inactive) | > 100 µM (inactive) | > 100 µM (inactive) | > 100 µM (inactive) | > 100 µM (inactive) | > 100 µM (inactive) | > 100 µM (inactive)
CC(CN(C)C)C(C#N)(c1ccccc1)c1ccccc1 (stereo unspecified) | > 100 µM (inactive) | > 100 µM (inactive) | > 100 µM (inactive) | > 100 µM (inactive) | > 100 µM (inactive) | 78.2 µM (inactive) | > 100 µM (inactive) | > 100 µM (inactive) | > 100 µM (inactive) | > 100 µM (inactive) | – | > 100 µM (inactive) | 49.1 µM (inactive) | > 100 µM (inactive) | > 100 µM (inactive) | > 100 µM (inactive) | > 100 µM (inactive) | > 100 µM (inactive) | > 100 µM (inactive) | > 100 µM (inactive)
Nc1cccc(CCN2CCN(CCCc3ccccc3)CC2)c1 | 24.8 µM (inactive) | > 100 µM (inactive) | 17.2 µM (inactive) | 46.2 µM (inactive) | 21.8 µM (inactive) | 33.2 µM (inactive) | 22.2 µM (inactive) | 25.4 µM (inactive) | 47.5 µM (inactive) | > 100 µM (inactive) | – | 26.7 µM (inactive) | 25.8 µM (inactive) | 53.3 µM (inactive) | 36.5 µM (inactive) | 19.2 µM (inactive) | 18.6 µM (inactive) | 20.3 µM (inactive) | 55.1 µM (inactive) | > 100 µM (inactive)
CN1CN(c2ccccc2)C2(CCN(C(=O)OC(C)(C)C)CC2)C1=O | > 100 µM (inactive) | > 100 µM (inactive) | > 100 µM (inactive) | > 100 µM (inactive) | > 100 µM (inactive) | 98.2 µM (inactive) | > 100 µM (inactive) | > 100 µM (inactive) | > 100 µM (inactive) | > 100 µM (inactive) | – | > 100 µM (inactive) | > 100 µM (inactive) | > 100 µM (inactive) | > 100 µM (inactive) | > 100 µM (inactive) | > 100 µM (inactive) | > 100 µM (inactive) | > 100 µM (inactive) | > 100 µM (inactive)
CCC(C)C1NC(=O)C(NC(=O)c2c3nc4c(C(=O)NC5C(=O)NC(C(C)CC)C(=O)N6CCCC6C(=O)N(C)CC(=O)N(C)C(C(C)C)C(=O)OC5C)ccc(C)c4oc-3c(C)c(=O)c2N)C(C)OC(=O)C(C(C)C)N(C)C(=O)CN(C)C(=O)C2CCCN2C1=O (stereo unspecified) (I: TIP[Sar][NMeV] / II: TIP[Sar][NMeV]; ester I:1-I:C, II:1-II:C; linker I:N-II:N via Actinocin(1to9); configuration not given here) | 0.000477 µM (active) | 0.00101 µM (active) | < 0.0001 µM (active) | < 0.0001 µM (active) | 0.000169 µM (active) | 0.000143 µM (active) | < 0.0001 µM (active) | < 0.0001 µM (active) | 0.0102 µM (active) | < 0.0001 µM (active) | – | 0.0204 µM (active) | < 0.0001 µM (active) | 0.0059 µM (active) | 0.00561 µM (active) | < 0.0001 µM (active) | 0.000539 µM (active) | 0.00173 µM (active) | 0.011 µM (active) | 0.296 µM (active)
CCCCCCCCCC1CC(=O)NCC(=O)NC(C(C)C)C(=O)NC(CC(C)C)C(=O)NC(C)C(=O)NC(C(C)C)C(=O)O1 (stereo unspecified) | 13.3 µM (inactive) | 25.2 µM (inactive) | 56.1 µM (inactive) | 12.8 µM (inactive) | 25.1 µM (inactive) | 17.1 µM (inactive) | 19.1 µM (inactive) | 5.38 µM (inactive) | 1.36 µM (inactive) | 18.7 µM (inactive) | – | > 100 µM (inactive) | 15.7 µM (inactive) | > 100 µM (inactive) | 10.2 µM (inactive) | 17.8 µM (inactive) | 10.4 µM (inactive) | 20.5 µM (inactive) | 21.9 µM (inactive) | > 100 µM (inactive)
